Each structure is given as a SMILES string. Counter-ions that a name gives are not always drawn.

This assay has as its system Human osteosarcoma U2OS cells. The assay can be described thus: Acidic vesicle formation (lysosome/autolysosome staining, LysoView 633 / LysoTracker Deep Red), stimulation of autophagy. The note with it: 24 hours; for activation at 10 µM: read-out: increase in acidic vesicle formation over the DMSO-treated control; for activation at 0.8 µM: read-out: Activity (percentage increase in acidic vesicle formation over the DMSO-treated control). Format: cell-based. On the procedure:
Lysosomes play a fundamental role in the autophagic pathway by fusing with autophagosomes and creating ‘autolysosomes’ in order to digest their contents. Stimulation of lysosome and autolysosome formation by a compound is indicative of a stimulation of autophagy. The ability of compounds to stimulate lysosome and autolysosome formation, and thus autophagy, in live cells was assessed via fluorescent microscopy using various fluorescent stains for labelling and tracking acidic organelles (including lysosomes and autolysosomes) such as: LysoView™ 650 (70059 and 70059-T, Biotium), LysoView™633 (70058 and 70058-T, Biotium) and LysoTracker™ Deep Red (L12492, ThermoFisher Scientific). The cellular phenotype was quantitatively assessed for the induction of acidic vesicle formation and compared to a non-treated control, thus providing a measure of the ability of the compound under investigation to stimulate autophagy.
Representative procedure using LysoView™633 dye or LysoTracker™ Deep Red dye: Human osteosarcoma U2OS cells (40,000 cells/well) were seeded in a 24 well glass bottom plate (Sensoplate, Greiner Bio-One) and were incubated overnight in a humidified atmosphere at 37° C. and 5% CO2. Cells were grown in DMEM (Gibco) supplemented with 10% Fetal Bovine Serum (FBS) and 100 units/ml penicillin and 100 μg/ml streptomycin (Invitrogen). After the attachment period, cells were treated with different compounds of interest (at various concentrations in DMSO) or DMSO (non-treated control) in cell culture medium and were incubated for 24 hours. Compound-containing medium was removed and cells were incubated with pre-warmed cell culture medium containing 1× LysoView™ 633 (70058 and 70058-T, Biotium) or 50 nM LysoTracker™ Deep Red (L12492, ThermoFisher Scientific) for 45 minutes at 37° C. Finally, cell nuclei were stained for 10 minutes using Hoechst 33342 (1 μg/mL) and then the medium was replaced with fresh medium. The 24 well plate was then fitted into a heated stage on the microscope and cells maintained at 37° C. Images were captured using appropriate filter set for Cy5 and DAPI detection with the EVOS M7000 Microscope (ThermoFisher Scientific). The cellular phenotype was visually assessed for the induction of acidic vesicle formation relative to the non-treated control; multiple images were acquired and analysed using ImageJ or Cell Profiler.

For `CCOc1ccc(Cl)cc1CN1CC[C@@H](CNC)C1` [Compound 51, (S)-1-(1-(5-chloro-2-ethoxybenzyl)pyrrolidin-3-yl)-N-methylmethanamine], the activation at 10 µM was at least 25%. Regarding `NC[C@H]1CCN(Cc2cc(Cl)ccc2OCCO)C1` [Compound 24, (R)-2-(2-((3-(aminomethyl)pyrrolidin-1-yl)methyl)-4-chlorophenoxy)ethan-1-ol hydrochloride], the activation at 10 µM is at least 25%.

For the molecule `NC[C@@H]1CCN(CCc2cc(Cl)ccc2OCC2CC2)C1` [Compound 44, (S)-(1-(5-chloro-2-(cyclopropylmethoxy)phenethyl)pyrrolidin-3-yl)methanamine hydrochloride], the activation at 0.8 µM fell in the range of 50 to 100% and the activation at 10 µM was at least 25%. As for `CCOc1ccc(C(F)(F)F)cc1CN1CCN[C@@H](C)C1` [Compound 1, (S)-1-(2-ethoxy-5-(trifluoromethyl)benzyl)-3-methylpiperazine hydrochloride], the activation at 10 µM is at least 25%. As to `CCOc1ccc(Cl)cc1CN1CCC(N(C)C)CC1` [Compound 11, 1-(5-chloro-2-ethoxybenzyl)-N,N-dimethylpiperidin-4-amine], the activation at 0.8 µM lay within 10 to 30% and the activation at 10 µM was at least 25%. Taken in the same sequence, the figures for `CCOc1ccc(C(F)(F)F)cc1CN1CC[C@@H](CN)C1` [Compound 2, (S)-(1-(2-ethoxy-5-(trifluoromethyl)benzyl)pyrrolidin-3-yl)methanamine hydrochloride] were 10 to 30% and at least 25%. Take `CCOc1ccc(Cl)cc1CN1CCC[C@@H](N)C1` [Compound 15, (R)-1-(5-chloro-2-ethoxybenzyl)piperidin-3-amine hydrochloride]: the activation at 0.8 µM is 10 to 30% and the activation at 10 µM is at least 25%.

Take `CCOc1ccc(Cl)cc1CN1CCN(CC)CC1` [Compound 10, 1-(5-chloro-2-ethoxybenzyl)-4-ethylpiperazine]: the activation at 0.8 µM lay within 10 to 30% and the activation at 10 µM is at least 25%. As for `CCOc1cc(F)c(CN2CC[C@@H](CN)C2)cc1Cl` [Compound 58, (S)-(1-(5-chloro-4-ethoxy-2-fluorobenzyl)pyrrolidin-3-yl)methanamine hydrochloride], the activation at 10 µM was at least 25%.

Regarding `CCOc1ccc(Cl)cc1CN1CC[C@H](N)C1` [Compound 69, (S)-1-(5-chloro-2-ethoxybenzyl)pyrrolidin-3-amine hydrochloride], the activation at 10 µM was at least 25%.

`COCCOc1ccc(Cl)cc1CN1CC[C@@H](CN)C1` [Compound 54, (S)-(1-(5-chloro-2-(2-methoxyethoxy)benzyl)pyrrolidin-3-yl)methanamine hydrochloride]: the activation at 10 µM is at least 25%. For `CCOc1ccc(Cl)cc1CN1CCOC(CN)C1` (centres unmarked) [Compound 41, (4-(5-chloro-2-ethoxybenzyl)morpholin-2-yl)methanamine hydrochloride], the activation at 0.8 µM was 10 to 30% and the activation at 10 µM is at least 25%. With `CCOc1ccc(Cl)cc1CN1CCO[C@@H](CN)C1` [Compound 28, (S)-(4-(5-chloro-2-ethoxybenzyl)morpholin-2-yl)methanamine hydrochloride], the activation at 0.8 µM was in the range of 10 to 30% and the activation at 10 µM was at least 25%. Consider `CC(C)COc1ccc(Cl)cc1CN1CC[C@@H](CN)C1` [Compound 52, (S)-(1-(5-chloro-2-isobutoxybenzyl)pyrrolidin-3-yl)methanamine hydrochloride], for which the activation at 0.8 µM fell in the range of 10 to 30% and the activation at 10 µM was at least 25%. Take `CCOc1cc(Cl)c(Cl)cc1CN1CC[C@@H](CN)C1` [Compound 5, (S)-(1-(4,5-dichloro-2-ethoxybenzyl)pyrrolidin-3-yl)methanamine hydrochloride]: the activation at 0.8 µM lay within 30 to 50% and the activation at 10 µM was at least 25%. On to `NC[C@@H]1CCN(Cc2cc(Cl)c(Cl)cc2OCC2CC2)C1` [Compound 6, (S)-(1-(4,5-dichloro-2-(cyclopropylmethoxy)benzyl)pyrrolidin-3-yl)methanamine hydrochloride], for which the activation at 0.8 µM is 50 to 100% and the activation at 10 µM was at least 25%. On to `CCOc1ccc(CN2CC[C@@H](CN)C2)c(F)c1Cl` [Compound 57, (S)-(1-(3-chloro-4-ethoxy-2-fluorobenzyl)pyrrolidin-3-yl)methanamine hydrochloride], for which the activation at 10 µM was at least 25%.

Take `CCOc1ccc(Cl)cc1CCN1CC[C@@H](CN)C1` [Compound 49, (S)-(1-(5-chloro-2-ethoxyphenethyl)pyrrolidin-3-yl)methanamine hydrochloride]: the activation at 10 µM was at least 25%. In the case of `CCOc1ccc(CCN2CCC[C@@H](CN)C2)cc1Cl` [Compound 67, (S)-(1-(3-chloro-4-ethoxyphenethyl)piperidin-3-yl)methanamine hydrochloride], the activation at 10 µM was at least 25%. For the molecule `CCOc1ccc(Cl)c(Cl)c1CCN1CC[C@@H](CN)C1` [Compound 34, (S)-(1-(2,3-dichloro-6-ethoxyphenethyl)pyrrolidin-3-yl)methanamine hydrochloride], the activation at 10 µM was at least 25%. On to `CCCOc1ccc(Cl)cc1CN1CCN[C@@H](C)C1` [Compound 47, (S)-1-(5-chloro-2-propoxybenzyl)-3-methylpiperazine hydrochloride], for which the activation at 0.8 µM was 30 to 50% and the activation at 10 µM is at least 25%. Turning to `CCCCOc1ccc(Cl)cc1CN1CC[C@H](CN)C1` [Compound 26, (R)-(1-(2-butoxy-5-chlorobenzyl)pyrrolidin-3-yl)methanamine hydrochloride], the activation at 0.8 µM is over 100% and the activation at 10 µM was at least 25%.

As for `CCCCOc1ccc(Cl)cc1CN1CC[C@@H](CN)C1` [Compound 27, (S)-(1-(2-butoxy-5-chlorobenzyl)pyrrolidin-3-yl)methanamine hydrochloride], the activation at 0.8 µM was over 100% and the activation at 10 µM was at least 25%. For the molecule `CCOc1ccc(Cl)cc1CCN1CCC[C@H](N)C1` [Compound 19, (S)-1-(5-chloro-2-ethoxyphenethyl)piperidin-3-amine hydrochloride], the activation at 10 µM was at least 25%.

Consider `CCOc1ccc(C#N)cc1CCN1CCC[C@@H](CN)C1` [Compound 64, (S)-3-(2-(3-(aminomethyl)piperidin-1-yl)ethyl)-4-ethoxybenzonitrile hydrochloride], for which the activation at 10 µM was at least 25%. For `CCCOc1ccc(OC(F)(F)F)cc1CN1CCN[C@@H](C)C1` [Compound 32, (S)-3-methyl-1-(2-propoxy-5-(trifluoromethoxy)benzyl) piperazine hydrochloride], the activation at 0.8 µM was 50 to 100% and the activation at 10 µM is at least 25%. On to `CCOc1ccc(Cl)cc1CN1CCC[C@H]1CN` [Compound 13, (S)-(1-(5-chloro-2-ethoxybenzyl)pyrrolidin-2-yl)methanamine hydrochloride], for which the activation at 10 µM was at least 25%. The same measure, in the same setting: with `CCOc1ccc(Cl)cc1CCN1CCO[C@@H](CN)C1` [Compound 63, (S)-(4-(5-chloro-2-ethoxyphenethyl)morpholin-2-yl)methanamine hydrochloride] the figure was at least 25%. Take `CCOc1cc(Cl)cc(CN2CC[C@@H](CN)C2)c1` [Compound 31, (S)-(1-(3-chloro-5-ethoxybenzyl)pyrrolidin-3-yl)methanamine hydrochloride]: the activation at 0.8 µM is over 100% and the activation at 10 µM was at least 25%.
